Laboratory results taken from patent US11339169B2, “P2X3 and/or P2X2/3 compounds and methods” (Asana BioSciences, LLC, priority 2016, dated 2022).
pIC50: −log10 of the molar value.

What was measured:
hP2X2/3 = target: T1, hP2X2/3 (Homo sapiens, UniProt P56373+Q9UBL9); assay: FLIPR intracellular calcium assay, hP2X2/3; assay type: cell-based; settings: human P2X2/3-TRex293 cells, agonist at EC75
T1 construct: host or cells: TRex293 (hP2X2/3-TRex293), doxycycline-induced
T1 sequence (P56373 1-397): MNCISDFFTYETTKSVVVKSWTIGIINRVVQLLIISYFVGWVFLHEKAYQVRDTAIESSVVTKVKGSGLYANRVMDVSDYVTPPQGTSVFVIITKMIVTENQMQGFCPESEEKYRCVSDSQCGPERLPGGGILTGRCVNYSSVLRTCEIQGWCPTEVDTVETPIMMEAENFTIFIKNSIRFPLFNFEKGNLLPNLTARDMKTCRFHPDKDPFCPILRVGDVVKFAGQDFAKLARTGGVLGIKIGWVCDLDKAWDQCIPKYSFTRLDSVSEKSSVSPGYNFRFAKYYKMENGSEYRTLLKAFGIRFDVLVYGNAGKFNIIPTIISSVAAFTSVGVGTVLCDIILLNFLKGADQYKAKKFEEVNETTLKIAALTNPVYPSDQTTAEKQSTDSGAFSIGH
T1 sequence (Q9UBL9 1-471): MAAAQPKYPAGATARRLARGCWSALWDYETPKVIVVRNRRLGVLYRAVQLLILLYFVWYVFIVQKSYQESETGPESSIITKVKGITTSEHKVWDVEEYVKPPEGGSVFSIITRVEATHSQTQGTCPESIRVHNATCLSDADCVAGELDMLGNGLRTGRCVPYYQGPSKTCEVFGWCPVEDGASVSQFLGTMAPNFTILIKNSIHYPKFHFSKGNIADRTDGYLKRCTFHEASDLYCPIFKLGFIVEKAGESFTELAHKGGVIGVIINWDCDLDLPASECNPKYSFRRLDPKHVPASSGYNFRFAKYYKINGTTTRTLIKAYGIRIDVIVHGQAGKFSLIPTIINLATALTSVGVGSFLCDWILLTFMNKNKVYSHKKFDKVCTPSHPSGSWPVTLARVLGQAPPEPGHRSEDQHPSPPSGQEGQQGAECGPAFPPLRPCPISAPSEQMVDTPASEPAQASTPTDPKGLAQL
Excerpt: (§1) The FLIPR® assay utilizes cells which express human or rat P2X3 or P2X2/3 receptors. Recombinant cells expressing hP2X3 (Cat #6188) and hP2X2/3 (Cat #6179) were procured from Chantest Corp. Rat P2X2 (NCBI Accession No: U14414) was amplified by PCR from PC12 cDNA (a rat adrenal medulla cell line). The PCR product obtained containing the protein coding sequence of rat P2X2 was cloned into EcoRV-digested and dephosphorylated vector plRES-puro3 within the multiple cloning site (MCS). See, FIG. 1A.
(§2) (i) Intracellular Calcium Assay Protocol for Screening Compounds
(§3) Cryo-vial containing 6×10^6 cells (human P2X3-HEK/human P2X2/3-TRex293/rat P2X2/3-TRex293/rat P2X3 TRex-CHO) was thawed in a 37° C. water bath. Cells were suspended in 20 mL of respective cell plating media (See annexure for composition) in a 50 mL centrifuge tube. The cell viability was checked with the help of Trypan Blue dye. Upon washing, cells were plated in a black 384-well clear bottomed, sterile poly-D-lysine coated plate such that, each well contained 10,000 cells (15,000/well for hP2X3) in 30 μL cell plating media. The plate was incubated in a 5% CO2 incubator at 37° C. for 24 h.
(§4) The next day, prior to the assay, the cell plating media was removed from each well by decanting and gentle tapping. Thirty μL of FLIPR Calcium 4 dye solution was added to each well. The plate was incubated at 37° C. for 45 min (60 min for hP2X3). The plate was next equilibrated at room temperature for 15 minutes before placing it in a 384 well FLIPR for the assay.
(§5) Compounds were dissolved in DMSO and serially diluted following 11 point half log (3.16 fold) dilution with a starting concentration of 2 mM. Dilutions were mixed with assay buffer just before performing the assay.
(§6) Compounds were added to the respective wells of the assay-ready cell plate with the help of the FLIPR and fluorescence readings were captured for 5 min to observe any possible agonistic property of the compounds. The plate was then incubated at room temperature for 15 min. The cells were stimulated with respective agonist EC75 concentration and the fluorescence readings were captured for another 5 min by FLIPR. The difference in fluorescence readings in presence of the compounds were compared with that of the control wells (wells having no compound) to calculate the inhibitory potency of the compounds. The IC50 values of the compounds were determined using the Graph pad Prism software.
(§7) (ii) Cell Plating Media for hP2X3-HEK and hP2X2/3-TRex293 Cells • DMEM/F12 (1:1) HAM media (Invitrogen; Cat #11039) • 1×NEAA (Invitrogen; Cat #11140) • 25 mM HEPES (Invitrogen; Cat #15630) • 1 mM sodium pyruvate (Invitrogen; Cat #11360) • 10% tetracycline negative FBS (PAA; Cat #A15-209) • 1 μg/mL doxycycline (Clontech; Cat #63131) [for hP2X2/3-TRex293 cells only]
(§8) (v) Assay Buffer Composition • HBSS (Invitrogen Cat #14025) • 20 mM HEPES (Invitrogen Cat #15630) • 0.01% F127 (Sigma Cat #P2443) • 1.8 mM CaCl2 (Sigma Cat #C5080) • pH adjusted to 7.4
(§9) (vi) Dye Solution Composition • 1× FLIPR Calcium 4 dye in assay buffer (Molecular devices Cat #R8141) • 1.8 mM Probenecid (Sigma Cat #P8761) • pH adjusted to 7.4

hP2X3 = target: T2, hP2X3 (Homo sapiens, UniProt P56373); assay: FLIPR intracellular calcium assay, hP2X3; assay type: cell-based; settings: human P2X3-HEK cells, agonist at EC75
T2 construct: host or cells: HEK (hP2X3-HEK)
T2 sequence (P56373 1-397): T1 sequence (P56373 1-397)
Excerpt: as §1, §2, §3, §4, §5, §6, §7, §8, §9

pIC50 (hP2X2/3) | pIC50 (hP2X3) | SMILES
6.00 to 7.00 | 7.00 to 9.00 | CCC(CC)n1ncc2nc(N3CCN(C(C)=O)CC3)nc(N[C@H](CC)c3cnc4ccccc4c3)c21 [Example 35]
7.00 to 9.00 | 7.00 to 9.00 | CCC(CC)n1ncc2nc(N3CCN(C(N)=O)CC3)nc(N[C@H](C)c3cnc4ccccc4c3)c21 [Example 51]
5.00 to 6.00 | 6.00 to 7.00 | CCC(C)n1ncc2nc(N3CCN(C(C)=O)CC3)nc(N[C@@H](C)c3cnc4ccccc4c3)c21 (stereo partly shown) [Example 18]
7.00 to 9.00 | 7.00 to 9.00 | CCC(CC)n1ncc2nc(N3CCN(C(C)=O)CC3)nc(N[C@@H](c3cnc4ccccc4c3)C3CC3)c21 [Example 44]
5.00 to 6.00 | 7.00 to 9.00 | CCC(C)n1ncc2nc(N3CCN(C(C)=O)CC3)nc(NC(C)c3ccc4oc(C)cc4c3)c21 (stereo not shown) [Example 45]
6.00 to 7.00 | 7.00 to 9.00 | CCC(CC)n1ncc2nc(N3CCN(C(C)=O)CC3)nc(N[C@H](C)c3cnc4ccc(F)cc4c3)c21 [Example 61]
6.00 to 7.00 | 7.00 to 9.00 | CCC(C)n1ncc2nc(N3CCN(C(C)=O)CC3)nc(N[C@H](C)c3cnc4ccccc4c3)c21 (stereo partly drawn) [Example 89, 1-{4-[1-sec-Butyl-7-((R)-1-quinolin-3-yl-ethylamino)-1H-pyrazolo[4,3-d]pyrimidin-5-yl]-piperazin-1-yl}-ethanone]
5.00 to 6.00 | 7.00 to 9.00 | COCC(C)n1ncc2nc(N3CCN(C(C)=O)CC3)nc(N[C@H](C)c3cnc4ccccc4c3)c21 (stereo partly shown) [Example 24]
6.00 to 7.00 | 7.00 to 9.00 | CC[C@H](C)n1ncc2nc(N3CCN(C(C)=O)CC3)nc(NC(CO)c3cnc4ccccc4c3)c21 (stereo partly shown) [Example 81]
6.00 to 7.00 | 7.00 to 9.00 | CCC(CC)n1ncc2nc(N3CCN(C(C)=O)CC3)nc(NC(C)c3ccc4sccc4c3)c21 (stereo not shown) [Example 57]
6.00 to 7.00 | 7.00 to 9.00 | CC(=O)N1CCN(c2nc(N[C@H](C)c3cnc4ccccc4c3)c3c(cnn3C(C)C(C)C)n2)CC1 (stereo partly shown) [Example 60]
< 5.00 | 7.00 to 9.00 | CCC(C)n1cc2nc(N3CCN(C(C)=O)CC3)nc(N[C@H](C)c3cnc4ccccc4c3)c2n1 (stereo partly shown) [Example 5]
5.00 to 6.00 | 7.00 to 9.00 | CCOc1ccc([C@H](C)Nc2nc(N3CCN(C(C)=O)CC3)nc3cnn(C(CC)CC)c23)cc1 [Example 33]
5.00 to 6.00 | 7.00 to 9.00 | CC(=O)N1CCN(c2nc(N[C@H](C)c3cnc4ccccc4c3)c3c(cnn3C(C)C)n2)CC1 [Example 12]
5.00 to 6.00 | 7.00 to 9.00 | CC[C@@H](C)n1ncc2nc(N3CCN(C(C)=O)CC3)nc(N[C@H](C)c3cnc4ccccc4c3)c21 [Example 21]
5.00 to 6.00 | 7.00 to 9.00 | CC(=O)N1CCN(c2nc(NC(C)c3cnc4ccccc4c3)c3c(cnn3C(C)C)n2)CC1 (stereo not shown) [Example 11]

The remaining lines, values behind:

SMILES | pIC50 (hP2X2/3) | pIC50 (hP2X3)
CC[C@H](C)n1ncc2nc(N3CCN(C(N)=O)CC3)nc(NC(C)c3cnc4cc(F)c(F)cc4c3)c21 (stereo partly shown) [Example 68] | 6.00 to 7.00 | 7.00 to 9.00
CCC(CC)n1ncc2nc(N3CCN(C(N)=O)CC3)nc(NCc3cnc4ccccc4c3)c21 [Example 64] | 5.00 to 6.00 | 7.00 to 9.00
CCC(C)n1ncc2nc(-n3cnnn3)nc(N[C@@H](c3cnc4ccccc4c3)C3CC3)c21 (single isomer, unassigned) [Example 79] | 5.00 to 6.00 | 6.00 to 7.00
CC(=O)N1CCN(c2nc(NC(C)(C)Cc3ccc(Cl)cc3)c3nn(C(C)C)c(C)c3n2)CC1 [Example 101] | 5.00 to 6.00 | 6.00 to 7.00
CC(=O)N1CCN(c2nc(N[C@H](C)c3cnc4ccccc4c3)c3nn(C(C)C)c(C)c3n2)CC1 [Example 102] | < 5.00 | 7.00 to 9.00
CCC(C)n1ncc2nc(-n3cc(C(N)=O)nn3)nc(N[C@@H](c3cnc4ccccc4c3)C3CC3)c21 (stereo partly drawn) [Example 126, 1-{1-sec-Butyl-7-[((R)-cyclopropyl-quinolin-3-yl-methyl)-amino]-1H-pyrazolo[4,3-d]pyrimidin-5-yl}-1H-[1,2,3]triazole-4-carboxylic Acid Amide] | 5.00 to 6.00 | 7.00 to 9.00
CCC(CC)n1ncc2nc(-n3ccnn3)nc(N[C@@H](c3cnc4ccccc4c3)C3CC3)c21 [Example 74] | 6.00 to 7.00 | 7.00 to 9.00
CC(=O)N1CCN(c2nc(N[C@H](C)c3cnc4ccccc4c3)c3nn(C(C)C)c(C#N)c3n2)CC1 [Example 103] | < 5.00 | 7.00 to 9.00
CCC(C)n1ncc2nc(-c3cnn(CCO)c3)nc(N[C@@H](c3cnc4ccccc4c3)C3CC3)c21 (stereo partly shown) [Example 121] | 6.00 to 7.00 | 7.00 to 9.00
CCC(C)n1ncc2nc(N3CCN(C(C)=O)CC3)nc(NCC3(c4ccc(Cl)cc4)CCC3)c21 (stereo not shown) [Example 31] | 5.00 to 6.00 | 7.00 to 9.00
CCC(C)n1ncc2nc(-c3nnc(C)o3)nc(N[C@@H](c3cnc4ccccc4c3)C3CC3)c21 (stereo partly drawn) [Example 125, [1-sec-Butyl-5-(5-methyl-[1,3,4]oxadiazol-2-yl)-1H-pyrazolo[4,3-d]pyrimidin-7-yl]-((R)-cyclopropyl-quinolin-3-yl-methyl)-amine] | 5.00 to 6.00 | 7.00 to 9.00
CCC(C)n1nc2c(N[C@H](C)c3cnc4ccccc4c3)nc(N3CCN(C(C)=O)CC3)nc2c1Br (stereo partly shown) [Example 105] | 5.00 to 6.00 | 7.00 to 9.00
CC(=O)N1CCN(c2nc(N[C@H](C)c3cnc4ccccc4c3)c3c(cnn3CC3CCC3)n2)CC1 [Example 32] | 5.00 to 6.00 | 7.00 to 9.00
CCN1CCN(c2nc(N[C@H](C)c3cnc4ccccc4c3)c3c(cnn3C(C)C)n2)CC1=O [Example 23] | 5.00 to 6.00 | 7.00 to 9.00
CCC(C)n1nc2c(N[C@H](C)c3cnc4ccccc4c3)nc(N3CCN(C(C)=O)CC3)nc2c1C#N (stereo partly shown) [Example 106] | 5.00 to 6.00 | 7.00 to 9.00
CC(=O)N1CCN(c2nc(NCc3cnc4ccccc4c3)c3c(cnn3C(C)C)n2)CC1 [Example 14] | < 5.00 | 6.00 to 7.00
CC(C1CC1)n1ncc2nc(N3CCN(C(N)=O)CC3)nc(N[C@@H](c3cnc4ccccc4c3)C3CC3)c21 (stereo partly shown) [Example 86] | 7.00 to 9.00 | 7.00 to 9.00
CCC(C)n1ncc2nc(N3CCN(C(C)=O)CC3)nc(N[C@@H](c3cnc4ccccc4c3)C3CC3)c21 (stereo partly shown) [Example 56] | 6.00 to 7.00 | 7.00 to 9.00
CCC(C)n1ncc2nc(-c3cn[nH]c3)nc(N[C@@H](c3cnc4ccccc4c3)C3CC3)c21 (stereo partly shown) [Example 119] | 5.00 to 6.00 | 7.00 to 9.00
